Results as given in paper PMC11259170, “Small-molecule probe for IBD risk variant GPR65 I231L alters cytokine signaling networks through positive allosteric modulation” (Science Advances, 2024).

Experiments:
hGPR65 = target: T1, hGPR65 (Homo sapiens, UniProt Q8IYL9); assay: cAMP detection (Lance Ultra), GPR65 KO HeLa reconstituted with hGPR65; 21K screen dose confirmation; format: cell-based; conditions: HeLa GPR65 KO + hGPR65, pH 7.1, 30 min, normalized to DMSO and 100 μM forskolin; read-out: WT EC50
T1 construct: expressed in transfected cells; host or cells: HeLa (ATCC CCL-2), lentiviral transduction, pLX317
T1 sequence (Q8IYL9 whole entry): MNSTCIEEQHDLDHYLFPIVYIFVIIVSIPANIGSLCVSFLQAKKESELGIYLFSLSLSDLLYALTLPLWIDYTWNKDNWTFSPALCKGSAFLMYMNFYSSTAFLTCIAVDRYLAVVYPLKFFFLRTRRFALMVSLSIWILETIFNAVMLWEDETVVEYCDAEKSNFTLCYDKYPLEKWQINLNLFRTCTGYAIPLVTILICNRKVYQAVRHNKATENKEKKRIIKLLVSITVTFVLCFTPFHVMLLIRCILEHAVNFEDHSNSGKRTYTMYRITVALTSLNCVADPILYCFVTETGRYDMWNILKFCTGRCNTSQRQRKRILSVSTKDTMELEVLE
Protocol: (§1) The Lance Ultra cAMP Kit (PerkinElmer, TRF0264) was used for cAMP detection, and included the following reagents: ULight anti-cAMP antibody, Eu-cAMP tracer, 7.5% BSA Stabilizer solution, and cAMP detection buffer. Stimulation buffer was prepared as described by the kit manufacturer as follows: Hanks buffered saline solution (HBSS, Life Technologies, 14025-126) containing 0.5 mM IBMX (3-isobutyl-1-methylxanthine, Sigma-Aldrich, I7018) and buffered with 1 M Hepes (15630-080). Stimulation buffer was then adjusted to pH 7.1 using 12 N HCl. HeLa cells were lifted using Versene and then suspended at 2.5 × 10^5 cells/ml in stimulation buffer. Cells were then plated at 20 μl per well (5000 cells per well) in white, opaque OptiPlate 384-well MicroPlates (PerkinElmer, 6007299) using a Thermo Fisher Scientific Combi liquid dispenser. Compounds, stored at 5 mM in DMSO for the primary screen, or in a range of concentrations from 39 μM to 20 mM for dose curves, were transferred by the CyBio CyBi-Well Vario pin transfer tool with 100-nl pins (V&P FP1NS50H, 50-nl slot, 0.457-mm diameter, hydrophobic coated), into each assay well, 100 nl per well for a final assay concentration of 25 μM for the primary screen, or 195 nM to 100 μM for dose curves. Assay plates were then incubated at RT for 30 min. Eu-cAMP tracer was diluted 1:33 into detection buffer and the final solution then distributed into assay wells, 5 μl per well. ULight anti-cAMP antibody was diluted 1:100 into detection buffer, then distributed into assay wells, also 5 μl per well. Assay plates were then incubated at RT in the dark for 1 hour. Eu-cAMP tracer and Förster resonance energy transfer (FRET) emissions were then read using a PerkinElmer EnVision Multimode plate reader (ENVISION21040010), exciting each well at 320 nm [UV2 (TRF) 320 filter] and reading emissions at 615 nm (Europium 615 filter) and 665 nm (APC665 filter). Data analysis was performed using Genedata Screener and GraphPad Prism.
(§2) HeLa KO cell lines were generated using the px330 plasmid CRISPR system as previously described ([18]). Briefly, HeLa cells were transfected with a Cas9 vector containing a gene-specific single-guide RNA to target the GPR65 coding exon. Forty-eight to 72 hours after transfection, single clones were obtained through limiting dilution and then sequenced to validate the KO. Reconstituted cell lines were produced by transducing KO cells with empty lentivirus or lentivirus containing hGPR65 or mGPR65. After 48 hours, cells were treated with puromycin (3 μg/ml; InvivoGen, ant-pr-1) and resistant cells were used in experiments.

[1] = system: GPR65 KO HeLa cells + pLX empty vector; assay: cAMP detection, GPR65 KO HeLa + empty pLX vector (null control); format: cell-based, human; conditions: HeLa GPR65 KO + pLX, pH 7.1, 30 min, normalized to DMSO and 100 μM forskolin
Protocol: as §1, §2

Which results are given for `CC(Sc1nc2ncnc(N)c2[nH]1)C(=O)O` (stereo not drawn) [BRD-A18106607-001-02-5]?
EC50 (hGPR65): 6 µM; EC50 [1]: 6.4 µM

What does the source list for `Cc1cnccc1CN1CC(C(=O)O)CC1=O` (stereo not drawn) [BRD-A19095755-001-02-9]?
EC50 (hGPR65): 20.1 µM; EC50 [1]: 16.9 µM

With `CCCCC(CC)C(=O)Oc1ccc2c(c1)oc(=O)c1ccccc12` (stereo not drawn) [BRD-A19872532-001-02-1] as the molecule, how does the EC50 (hGPR65) read?
The EC50 was over 100 µM.

What about the EC50 [1] of the same molecule?
Its EC50 is over 100 µM.

Which EC50 (hGPR65) does the source give for `CCN1CCCc2cc(-c3cncn3C(C)CN3CCOCC3)ccc21` (stereo not drawn) [BRD-A40378740-001-02-0] here?
Its EC50 is over 100 µM.

And the EC50 [1]?
Its EC50 is over 100 µM.

Which EC50 (hGPR65) does the source give for `CC(=O)N1CCCC(CCCc2ccncc2)(C(=O)O)C1` (stereo not drawn) [BRD-A44875014-001-02-0] here?
The EC50 was 13.2 µM.

And the EC50 [1]?
The EC50 was 14.7 µM.

For `CN1CCN(c2ccnc3ccccc23)CC1C(=O)O` (stereo not drawn) [BRD-A45312230-001-02-1], which EC50 (hGPR65) is on record?
Its EC50 is 1.2 µM.

What about the EC50 [1] of the same molecule?
Its EC50 is 1.3 µM.

Which results are given for `CC(NC(=O)c1ccc2ncccc2c1)c1cc(=O)[nH]c(N2CCN(C)CC2)n1` (stereo not drawn) [BRD-A49179268-001-02-5]?
EC50 (hGPR65): 83.4 µM; EC50 [1]: 67.5 µM

Which results are given for `Clc1ccc2c(N3CCCC4(CCNC4)C3)ccnc2c1` (stereo not drawn) [BRD-A50085437-001-02-6]?
EC50 (hGPR65): 26.2 µM; EC50 [1]: 33.5 µM

Which results are given for `Cc1cc(C)n(CC(O)CN(Cc2ccco2)Cc2cccc3ncccc23)n1` (stereo not drawn) [BRD-A63170499-001-02-6]?
EC50 (hGPR65): > 100 µM; EC50 [1]: > 100 µM

For `O=S1(=O)CCC(Cn2cc(-c3ccnc4ccccc34)nn2)C1` (stereo not drawn) [BRD-A69528226-001-02-9], which EC50 (hGPR65) is on record?
Its EC50 is 19.9 µM.

What about the EC50 [1] of the same molecule?
Its EC50 is 17 µM.

Which EC50 (hGPR65) does the source give for `Cc1nc(C2CCCNC2)cc(N(C)Cc2cccc3cnccc23)n1` (stereo not drawn) [BRD-A78843635-001-02-6] here?
Its EC50 is over 100 µM.

What about the EC50 [1] of the same molecule?
The EC50 was 95.8 µM.

Which results are given for `O=C1CC(N2CCN(c3ncccn3)CC2)C(=O)N1c1ccccc1` (stereo not drawn) [BRD-A87117975-001-02-2]?
EC50 (hGPR65): 71.1 µM; EC50 [1]: 54.8 µM

What does the source list for `CN(C)CCOC(=O)C1CC2=C(CCCC2(C)C)CC1C(=O)O` (stereo not drawn) [BRD-A91973386-001-02-5]?
EC50 (hGPR65): 59.6 µM; EC50 [1]: 70.7 µM

`COc1ccc(S(=O)(=O)N2C[C@@H](N)[C@H](c3cn(C)c4cnccc34)C2)cc1` [BRD-K00063734-001-02-2] was tested. Which EC50 (hGPR65) did it give?
The EC50 was 73.6 µM.

What about the EC50 [1] of the same molecule?
Its EC50 is 63.2 µM.

Which EC50 (hGPR65) does the source give for `O=C(O)CCSCCc1ccncc1` [BRD-K06534048-001-02-7] here?
The EC50 was 37.8 µM.

And the EC50 [1]?
The EC50 was 29.3 µM.

With `CS(=O)(=O)N1CCN(c2ccnc3cc(Cl)ccc23)CC1` [BRD-K06900104-001-09-6] as the molecule, how does the EC50 (hGPR65) read?
Its EC50 is 27.5 µM.

What about the EC50 [1] of the same molecule?
Its EC50 is 23 µM.

For `Cc1cnc(N)c(C(=O)C2CCN(C(=O)c3cnc(C)nc3C)CC2)c1` [BRD-K07158347-001-02-2], which EC50 (hGPR65) is on record?
The EC50 was 18.3 µM.

And the EC50 [1]?
The EC50 was 17 µM.

How did the EC50 (hGPR65) turn out when `Nc1cccnc1Sc1nc2cccnc2s1` [BRD-K10062067-001-02-9] was run?
Its EC50 is over 100 µM.

And the EC50 [1]?
Its EC50 is over 100 µM.

What does the source list for `Nc1ccc2c(C(F)(F)F)cc(=O)oc2c1` [BRD-K20841137-001-08-7]?
EC50 (hGPR65): > 100 µM; EC50 [1]: > 100 µM

For `COc1cc(Br)c(-c2cc3ccccc3oc2=O)cc1OC` [BRD-K22294093-001-02-2], which EC50 (hGPR65) is on record?
The EC50 was under 10 µM.

What about the EC50 [1] of the same molecule?
Its EC50 is under 10 µM.

Which results are given for `CCN1C[C@@H](COC)[C@]2(CCN(C(=O)N3CCCC3)C2)C1` [BRD-K23021624-001-01-8]?
EC50 (hGPR65): > 100 µM; EC50 [1]: > 100 µM

What does the source list for `COC(=O)Nc1nc2ccc(-c3n[nH]c(=O)c4ccccc34)cc2[nH]1` [BRD-K25806464-001-09-6]?
EC50 (hGPR65): < 10 µM; EC50 [1]: < 10 µM

With `O=C(c1ccc2nc[nH]c2c1)N1CCC(CCOc2ccccc2)(C(=O)O)CC1` [BRD-K25972060-001-03-7] as the molecule, how does the EC50 (hGPR65) read?
The EC50 was 4.6 µM.

What about the EC50 [1] of the same molecule?
Its EC50 is 4.9 µM.

Which results are given for `O=c1c(-c2ccccc2)nnc2sc(-c3ccc4c(c3)OCCO4)nn12` [BRD-K26812102-001-02-6]?
EC50 (hGPR65): > 100 µM; EC50 [1]: > 100 µM

What does the source list for `O=C(c1ccco1)N1CCN(c2ccnc3cc(Cl)ccc23)CC1` [BRD-K27679143-001-08-6]?
EC50 (hGPR65): 18.3 µM; EC50 [1]: 15.6 µM

Which results are given for `Cn1ccc2c(-c3ccc(C(=O)N4CCCC4)cn3)ccnc21` [BRD-K29607656-001-02-7]?
EC50 (hGPR65): > 100 µM; EC50 [1]: > 100 µM

Which EC50 [1] does the source give for `O=C(CSc1ncnc2sc3c(c12)CCCC3)Nc1nccs1` [BRD-K40136431-001-02-4] here?
The EC50 was over 100 µM.

For `CC(C)CCn1c(Sc2nc3ccccc3s2)nc2c1c(=O)[nH]c(=O)n2C` [BRD-K74743357-001-08-3], which EC50 [1] is on record?
Its EC50 is 77.4 µM.
